Measurements published in publication PMC9124820, “In vitro evaluation of fenfluramine and norfenfluramine as victims of drug interactions” (Pharmacology Research & Perspectives, 2022).

Columns and labels:
OCT2 = target: T1, OCT2 (Homo sapiens, UniProt O15244); test: Transporter substrate determination, uptake in HEK293-OCT2 cells; type: in vitro ADME; conditions: for Maximum Ratio (uptake in transporter‐expressing cells to empty‐vector control cells): HEK293‐OCT2, 0.1, 1, 10 µM, threshold ≥2‐fold; for substrate of the transporter: OCT2
T1 construct: host or cells: HEK293
T1 sequence (O15244 1-555): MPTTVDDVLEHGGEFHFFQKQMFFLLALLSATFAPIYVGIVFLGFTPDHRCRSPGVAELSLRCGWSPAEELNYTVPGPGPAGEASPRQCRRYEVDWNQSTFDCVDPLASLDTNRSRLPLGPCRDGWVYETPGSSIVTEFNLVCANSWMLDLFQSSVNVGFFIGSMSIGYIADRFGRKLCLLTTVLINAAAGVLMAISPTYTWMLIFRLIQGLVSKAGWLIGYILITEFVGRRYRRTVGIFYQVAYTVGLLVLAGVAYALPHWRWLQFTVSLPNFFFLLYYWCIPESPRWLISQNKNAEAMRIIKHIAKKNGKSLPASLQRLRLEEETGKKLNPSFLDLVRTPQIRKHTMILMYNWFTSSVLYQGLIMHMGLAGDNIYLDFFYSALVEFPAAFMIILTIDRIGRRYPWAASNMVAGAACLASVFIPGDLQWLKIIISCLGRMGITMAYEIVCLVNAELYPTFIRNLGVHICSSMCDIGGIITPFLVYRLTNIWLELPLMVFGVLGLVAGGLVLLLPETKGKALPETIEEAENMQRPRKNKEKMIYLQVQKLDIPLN
Procedure: (§1) LC‐MS/MS analyses to assess metabolic stability and identify the transporter substrate were performed using an API 4000 QTRAP mass spectrometer (SCIEX, Framingham, MA) with electrospray ionization in positive mode. Chromatography was performed using an Atlantis dC18 analytical column (100 × 2.1 mm, 5 µm; Waters Corporation, Milford, MA). Mobile phases were 0.2% v/v formic acid in water and 0.2% v/v formic acid in acetonitrile. For metabolic stability experiments, FFA and metabolites were eluted at a flow rate of 0.6 mL/min, with a linear gradient of 20%−80% acetonitrile from 0.30−2.0 min. For transporter substrate experiments, the gradient was slightly modified to achieve suitable chromatography. The mass transitions monitored were 232.0 > 159.0 for FFA and 348.0 > 330.0 for 1ʹ‐OH‐midazolam‐d4 internal standard.
(§2) FFA and nFFA were evaluated as substrates of the transporters breast cancer resistance protein (BCRP), organic anion transporter (OAT)1, OAT3, organic cation transporter (OCT)2, MATE1, MATE2‐K, and P‐glycoprotein multidrug transporter (P‐gp; also known as MDR1 and ABCB1), according to published methods.[25], [26], [27], [28], [29] Madin‐Darby canine kidney (MDCKII)‐BCRP cells (Netherlands Cancer Institute, Amsterdam, Netherlands) or human embryonic kidney (HEK)293 cells transfected with other transporters (Sekisui Medical Co., Ltd., Tokyo, Japan) were used. Transporter‐transfected and control cells were incubated with FFA or nFFA (0.1, 1, or 10 μM), and the amount of FFA and nFFA accumulated in the cells was measured by LC‐MS/MS as described above. The accumulation of positive control substrates in the presence and absence of an inhibitor served as a positive control for transporter function. […] BCRP substrate determination was made by bi‐directional permeability across MDCKII‐BCRP and control cells cultured on 24‐well transwell plates. Incubation medium containing probe substrate was added. Ten minutes later, transepithelial electrical resistance (TEER) was recorded and cells were preincubated at 37 ± 2°C for 30−60 min before FFA or nFFA or positive control substrate with the solvent control or positive control inhibitor was added to the donor (apical) chamber. […] Samples containing FFA, nFFA, or probe substrate were mixed with internal standard and analyzed by LC‐MS/MS. […] An aliquot was added to 96‐well plate containing scintillation fluid that was analyzed by a MicroBeta^2 scintillation counter (Perkin Elmer, Waltham, MA). Protein concentration was determined by a bicinchoninic acid (BCA) protein assay according to the manufacturer’s protocol (Thermo Fisher Scientific, Waltham, MA). Non‐radiolabeled compounds were resuspended in a 50:50 v/v methanol:water solution containing internal standard and were analyzed by LC‐MS/MS. […]

OAT1 = target: T2, OAT1 (Homo sapiens, UniProt Q4U2R8); test: Transporter substrate determination, uptake in HEK293-OAT1 cells; type: in vitro ADME; conditions: for Maximum Ratio (uptake in transporter‐expressing cells to empty‐vector control cells): HEK293‐OAT1, 0.1, 1, 10 µM, threshold ≥2‐fold; for substrate of the transporter: OAT1
T2 construct: host or cells: HEK293
T2 sequence (Q4U2R8 1-563): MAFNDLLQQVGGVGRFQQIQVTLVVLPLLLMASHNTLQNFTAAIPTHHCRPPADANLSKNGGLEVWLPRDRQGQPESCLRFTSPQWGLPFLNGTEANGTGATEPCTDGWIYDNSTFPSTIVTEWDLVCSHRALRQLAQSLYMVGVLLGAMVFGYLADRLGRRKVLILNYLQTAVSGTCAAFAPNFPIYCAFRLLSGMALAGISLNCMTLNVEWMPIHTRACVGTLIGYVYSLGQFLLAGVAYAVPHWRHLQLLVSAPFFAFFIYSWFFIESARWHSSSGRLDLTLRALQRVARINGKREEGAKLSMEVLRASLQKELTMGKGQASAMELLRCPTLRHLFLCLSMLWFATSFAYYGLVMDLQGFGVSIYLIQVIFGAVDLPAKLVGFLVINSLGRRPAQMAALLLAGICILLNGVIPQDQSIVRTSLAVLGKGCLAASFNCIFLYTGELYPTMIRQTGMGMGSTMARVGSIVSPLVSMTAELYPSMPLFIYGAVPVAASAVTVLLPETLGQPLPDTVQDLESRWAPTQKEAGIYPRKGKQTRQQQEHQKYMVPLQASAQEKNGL
Procedure: as §1, §2

Row | SMILES | Maximum Ratio (uptake in transporter‐expressing cells to empty‐vector control cells) (OCT2) | substrate of the transporter (OCT2) | Maximum Ratio (uptake in transporter‐expressing cells to empty‐vector control cells) (OAT1) | substrate of the transporter (OAT1)
1 | CCNC(C)Cc1cccc(C(F)(F)F)c1 (racemic) [FFA, (RS)‐ethyl (α‐methyl‐3‐trifluoromethylphenethyl)amine] | 1.09 | not substrates | 1.22 | not substrates
2 | CC(N)Cc1cccc(C(F)(F)F)c1.Cl (centres unmarked) [nFFA, 1‐(3‐(trifluoromethyl)phenyl)propan‐2‐amine hydrochloride] | 1.16 | not substrates | 1.13 | not substrates
